Peptide text beside a SMILES is read from it. * marks the point of attachment. AMC = Cc1cc(=O)oc2cc(N*)ccc12; Cbz = O=C(OCc1ccccc1)*
Assays:
S. mansoni legumain = conditions: synthetic substrate; background art; cited from earlier work
human legumain = target: T1, human legumain (Homo sapiens, UniProt Q99538); conditions: synthetic substrate; background art; cited from earlier work
T1 sequence (Q99538 18-323): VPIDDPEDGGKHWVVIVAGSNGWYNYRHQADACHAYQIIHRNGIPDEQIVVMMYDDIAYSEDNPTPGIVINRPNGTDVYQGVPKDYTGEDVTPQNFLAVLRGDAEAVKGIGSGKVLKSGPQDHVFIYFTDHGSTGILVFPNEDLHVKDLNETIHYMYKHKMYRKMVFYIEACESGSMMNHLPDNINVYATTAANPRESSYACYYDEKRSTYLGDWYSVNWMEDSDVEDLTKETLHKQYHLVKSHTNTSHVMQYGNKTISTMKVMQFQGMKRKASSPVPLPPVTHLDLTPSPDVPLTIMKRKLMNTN

Cathepsin B [1] = target: T2, Cathepsin B (Homo sapiens, UniProt P07858); conditions: irreversible inhibition; background art; cited from earlier work
cathepsin L = cathepsin L (Homo sapiens, UniProt P07711); conditions: irreversible inhibition; background art; cited from earlier work
Sequence of cathepsin L (P07711 114-333, species assumed): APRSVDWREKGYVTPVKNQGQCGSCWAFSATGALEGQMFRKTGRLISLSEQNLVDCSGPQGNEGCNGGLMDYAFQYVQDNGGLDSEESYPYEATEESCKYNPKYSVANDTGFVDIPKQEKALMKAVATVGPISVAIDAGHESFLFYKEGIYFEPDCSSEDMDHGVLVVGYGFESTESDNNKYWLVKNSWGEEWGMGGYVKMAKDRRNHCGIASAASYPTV

clan CD proteases = conditions: background art; cited from earlier work
Gingipain R = Gingipain R inhibition; assay type: biochemical; conditions: Table 3
Trypsin = conditions: Table 5, gingipain and clostripain specific inhibitors
Clostripain = Clostripain (Hathewaya histolytica, UniProt P09870); conditions: Table 3; Z-Phe-Arg-AMC substrate; pH 7.6
Sequence of Clostripain (P09870 51-526): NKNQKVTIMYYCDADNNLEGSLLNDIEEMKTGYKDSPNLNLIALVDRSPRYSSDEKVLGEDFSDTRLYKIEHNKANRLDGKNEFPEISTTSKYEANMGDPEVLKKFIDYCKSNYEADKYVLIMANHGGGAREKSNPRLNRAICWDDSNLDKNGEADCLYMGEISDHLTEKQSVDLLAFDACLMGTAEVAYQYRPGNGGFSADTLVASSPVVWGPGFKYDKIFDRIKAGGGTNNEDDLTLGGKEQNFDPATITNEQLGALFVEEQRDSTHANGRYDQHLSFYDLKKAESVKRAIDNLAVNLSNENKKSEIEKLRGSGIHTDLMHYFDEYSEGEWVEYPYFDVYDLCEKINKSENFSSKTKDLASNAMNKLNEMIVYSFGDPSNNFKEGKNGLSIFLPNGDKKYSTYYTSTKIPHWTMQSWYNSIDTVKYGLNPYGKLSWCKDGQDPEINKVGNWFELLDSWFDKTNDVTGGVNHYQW

Gingipain K = Gingipain K (Porphyromonas gingivalis, UniProt Q51817); test: biochemical; assay type: biochemical; conditions: Table 3; Suc-Ala-Phe-Lys-AMC substrate; pH 8.0
Sequence of Gingipain K (Q51817 229-1732 limits assumed): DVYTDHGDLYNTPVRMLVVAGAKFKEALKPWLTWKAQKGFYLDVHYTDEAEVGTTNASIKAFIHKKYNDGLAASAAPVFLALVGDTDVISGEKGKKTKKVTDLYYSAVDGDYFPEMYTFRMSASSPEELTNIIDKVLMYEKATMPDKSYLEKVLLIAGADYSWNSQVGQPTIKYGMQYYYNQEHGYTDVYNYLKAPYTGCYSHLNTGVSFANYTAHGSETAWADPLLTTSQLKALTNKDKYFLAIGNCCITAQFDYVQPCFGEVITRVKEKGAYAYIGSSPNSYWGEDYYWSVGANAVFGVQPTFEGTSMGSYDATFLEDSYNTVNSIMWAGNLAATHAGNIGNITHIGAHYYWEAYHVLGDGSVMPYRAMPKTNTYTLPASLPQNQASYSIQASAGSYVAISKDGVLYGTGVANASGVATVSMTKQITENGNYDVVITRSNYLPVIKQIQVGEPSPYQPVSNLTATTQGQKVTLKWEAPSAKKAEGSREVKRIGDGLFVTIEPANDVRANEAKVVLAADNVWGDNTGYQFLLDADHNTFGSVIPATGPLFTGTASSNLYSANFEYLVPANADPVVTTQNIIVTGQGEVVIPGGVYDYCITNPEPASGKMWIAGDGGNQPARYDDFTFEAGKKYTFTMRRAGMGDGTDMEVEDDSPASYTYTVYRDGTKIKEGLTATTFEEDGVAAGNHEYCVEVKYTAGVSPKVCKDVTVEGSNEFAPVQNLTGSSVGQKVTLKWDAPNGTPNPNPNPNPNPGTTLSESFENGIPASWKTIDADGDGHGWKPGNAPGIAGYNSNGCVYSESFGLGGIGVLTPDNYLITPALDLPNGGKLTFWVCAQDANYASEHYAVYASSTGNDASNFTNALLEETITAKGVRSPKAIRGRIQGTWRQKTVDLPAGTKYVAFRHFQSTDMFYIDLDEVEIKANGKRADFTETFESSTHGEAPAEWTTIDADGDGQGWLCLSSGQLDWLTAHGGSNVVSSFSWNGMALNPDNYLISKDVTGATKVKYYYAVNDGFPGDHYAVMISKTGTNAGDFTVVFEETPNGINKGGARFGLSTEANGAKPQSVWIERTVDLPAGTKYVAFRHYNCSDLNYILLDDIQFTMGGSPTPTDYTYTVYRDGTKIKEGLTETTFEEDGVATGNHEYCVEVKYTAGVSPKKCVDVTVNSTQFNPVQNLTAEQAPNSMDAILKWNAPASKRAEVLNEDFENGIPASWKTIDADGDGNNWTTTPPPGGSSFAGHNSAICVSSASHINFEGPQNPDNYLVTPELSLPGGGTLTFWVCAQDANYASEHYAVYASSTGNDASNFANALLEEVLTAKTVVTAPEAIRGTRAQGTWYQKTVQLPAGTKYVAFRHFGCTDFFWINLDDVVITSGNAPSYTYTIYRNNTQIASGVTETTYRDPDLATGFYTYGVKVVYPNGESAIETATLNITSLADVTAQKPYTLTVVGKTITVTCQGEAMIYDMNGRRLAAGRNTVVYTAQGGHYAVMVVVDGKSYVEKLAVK

Cathepsin B [2] = target: T2, Cathepsin B; test: Cathepsin B incubation inhibition assay; assay type: biochemical
Protocol: Papain and Cathepsin B. The incubation method was used to measure the irreversible inhibition of papain and cathepsin B. […] Pseudo first-order inactivation rate constants were obtained from plots of ln vt/vo versus time.

Calpain I = target: T3, Calpain I (Sus scrofa, UniProt P35750); test: Calpain I incubation inhibition assay; assay type: biochemical, porcine; conditions: Table 4, cross reactivity of caspase inhibitors; listed as Cbz-Leu-Glu-Thr-AAsp-trans-CH═CH—COOEt
T3 construct: by the incubation method with calpain I from porcine erythrocytes; from tissue; host or cells: porcine erythrocytes
T3 sequence (P35750 1-714): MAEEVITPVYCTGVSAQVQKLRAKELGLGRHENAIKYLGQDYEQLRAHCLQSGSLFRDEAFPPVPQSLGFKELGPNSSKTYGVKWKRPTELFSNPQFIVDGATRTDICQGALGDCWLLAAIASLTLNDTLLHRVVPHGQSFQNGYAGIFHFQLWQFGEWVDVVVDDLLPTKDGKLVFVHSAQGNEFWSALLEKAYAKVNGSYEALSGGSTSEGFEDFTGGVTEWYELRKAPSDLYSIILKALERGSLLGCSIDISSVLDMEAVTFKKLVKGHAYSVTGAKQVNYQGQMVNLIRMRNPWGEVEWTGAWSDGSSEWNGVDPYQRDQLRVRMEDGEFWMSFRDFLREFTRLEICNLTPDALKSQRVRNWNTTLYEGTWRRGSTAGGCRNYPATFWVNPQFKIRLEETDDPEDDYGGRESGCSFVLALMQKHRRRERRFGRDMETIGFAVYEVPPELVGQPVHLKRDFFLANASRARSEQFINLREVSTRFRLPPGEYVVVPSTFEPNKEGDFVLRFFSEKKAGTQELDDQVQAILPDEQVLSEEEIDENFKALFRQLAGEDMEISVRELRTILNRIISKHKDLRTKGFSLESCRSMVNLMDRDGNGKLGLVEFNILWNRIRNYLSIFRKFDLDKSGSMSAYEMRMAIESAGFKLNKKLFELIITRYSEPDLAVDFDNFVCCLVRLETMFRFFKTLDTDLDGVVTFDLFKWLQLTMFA
T3 sequence (P04574 1-266 partner): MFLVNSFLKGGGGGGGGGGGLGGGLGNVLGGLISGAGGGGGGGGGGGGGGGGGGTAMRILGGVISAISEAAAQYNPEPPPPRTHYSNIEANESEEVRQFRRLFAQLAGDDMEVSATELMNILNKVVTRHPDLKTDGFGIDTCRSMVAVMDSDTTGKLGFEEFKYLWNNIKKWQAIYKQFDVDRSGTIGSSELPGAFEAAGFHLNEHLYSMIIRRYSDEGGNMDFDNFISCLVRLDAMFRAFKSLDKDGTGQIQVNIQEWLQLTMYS
Protocol: Calpain I. Irreversible kinetic assays were performed by the incubation method with calpain I from porcine erythrocytes. […] At various time intervals 50 μL aliquots were withdrawn from the incubation mixture and added to 200 μL enzyme buffer containing Suc-Leu-Tyr-AMC (1.6 mM). […] Pseudo first-order rate constants (kobs) were obtained from plots of ln vt/vo versus time.

Caspase-3 = target: T4, Caspase-3 (Homo sapiens, UniProt P42574); test: Caspase-3 progress curve inhibition assay; conditions: second-order rate constant; Ac-DEVD-AMC substrate; Pipes buffer pH 7.2
T4 sequence (P42574 29-175 limits assumed): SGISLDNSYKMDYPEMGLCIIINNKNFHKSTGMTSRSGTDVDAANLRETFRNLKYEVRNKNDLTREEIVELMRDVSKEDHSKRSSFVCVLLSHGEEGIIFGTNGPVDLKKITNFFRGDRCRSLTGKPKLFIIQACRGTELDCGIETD
T4 sequence (P42574 176-277 limits assumed): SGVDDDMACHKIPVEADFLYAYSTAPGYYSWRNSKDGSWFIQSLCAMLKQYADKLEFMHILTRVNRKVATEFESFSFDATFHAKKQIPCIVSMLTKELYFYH

Caspase-9 = target: T5, Caspase-9 (Homo sapiens, UniProt P55211); test: Caspase-9 progress curve inhibition assay; conditions: second-order rate constant; Ac-LEHD-AFC substrate; Hepes buffer pH 7.0 with 0.7 M sodium citrate
T5 sequence (P55211 1-315 limits assumed): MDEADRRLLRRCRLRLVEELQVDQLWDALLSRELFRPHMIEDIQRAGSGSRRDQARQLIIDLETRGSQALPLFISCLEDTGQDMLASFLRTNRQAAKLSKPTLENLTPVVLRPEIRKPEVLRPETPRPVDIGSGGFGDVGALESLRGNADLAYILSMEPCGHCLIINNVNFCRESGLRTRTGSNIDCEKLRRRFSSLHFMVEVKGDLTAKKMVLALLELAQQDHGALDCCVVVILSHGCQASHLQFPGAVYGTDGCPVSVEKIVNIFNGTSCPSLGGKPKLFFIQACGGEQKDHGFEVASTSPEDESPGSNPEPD
T5 sequence (P55211 331-416 limits assumed): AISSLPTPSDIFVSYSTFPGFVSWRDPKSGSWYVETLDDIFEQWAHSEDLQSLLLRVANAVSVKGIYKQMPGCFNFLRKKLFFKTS

**Q.** For `Cc1cc(=O)oc2cc(NC(=O)[C@H](CC(N)=O)NC(=O)[C@H](C)NC(=O)[C@H](C)NC(=O)OCc3ccccc3)ccc12` [Cbz-Ala-Ala-Asn-AMC] (Cbz-Ala-Ala-Asn-{AMC}), which Km (S. mansoni legumain) is on record?
**A.** 90 µM

**Q.** And the Km (human legumain)?
**A.** 80 µM

**Q.** With `CC(C)CCNC(=O)[C@H](CC(C)C)NC(=O)/C=C/C(=O)O` (stereo in doubt) [fumarate derivative of E-64c, trans-HOOCCH═CH—CO-Leu-NH(CH2)2CH(CH3)2] as the molecule, how does the “kapp cathepsin B” value (Cathepsin B [1]) read?
**A.** 625 M⁻¹ s⁻¹

**Q.** What about the “kapp cathepsin L” value (cathepsin L) of the same molecule?
**A.** 2272 M⁻¹ s⁻¹

**Q.** What about the “inhibition of clan CD proteases” value (clan CD proteases) of the same molecule?
**A.** do not inhibit

**Q.** With `CCOC(=O)C=CC(=O)N(CCCCN)NC(=O)[C@H](CC(C)C)NC(=O)CCc1ccccc1` [PhPr-Leu-ALys-CH═CH—COOEt] as the molecule, how does the “k2 Gingipain R” value (Gingipain R) read?
**A.** 289 M⁻¹ s⁻¹

**Q.** What about the “kobs/[I] Trypsin” value (Trypsin) of the same molecule?
**A.** 17 M⁻¹ s⁻¹

**Q.** What about the “k2 Clostripain” value (Clostripain) of the same molecule?
**A.** 40,750 M^−1s^−1

**Q.** And the “k2 Gingipain K” value (Gingipain K)?
**A.** 3,280,000 M^−1s^−1

**Q.** What about the “kobs/[I] Cathepsin B” value (Cathepsin B [2]; Table 5, gingipain and clostripain specific inhibitors) of the same molecule?
**A.** 9 M⁻¹ s⁻¹

**Q.** What does the source list for `CCOC(=O)/C=C/C(=O)N(CC(=O)O)NC(=O)[C@@H](NC(=O)[C@H](CCC(=O)O)NC(=O)[C@H](CC(C)C)NC(=O)OCc1ccccc1)[C@@H](C)O` (relative stereo) [Cbz-Leu-Glu-Thr-AAsp-CH═CH—COOEt, N^2—(N-Berzyloxycarbonylleucylglutamylthreonyl)-N^1-carboxymethyl-N^1-trans-(3-ethoxycarbonylpropenoyl)hydrazine]?
**A.** k2 Calpain (Calpain I): <10 M⁻¹ s⁻¹; k2 Caspase-3 (Caspase-3): 5,560 M^−1s^−1; k2 Caspase-9 (Caspase-9): 37 M⁻¹ s⁻¹; k2 Cathepsin B (Cathepsin B [2]; Table 4, cross reactivity of caspase inhibitors, listed as Cbz-Leu-Glu-Thr-AAsp-trans-CH═CH—COOEt): <10 M⁻¹ s⁻¹

Reference: patent US7482379B2, “Propenoyl hydrazides” (priority 2004, dated 2009)
